In patent US12077503B2, “Substituted cyclic amides and their use as herbicides” (FMC CORPORATION, priority 2015, dated 2024):

How the values were obtained:
Type in all cases: in vivo
Kochia (Kochia scoparia) [1] = assay: Test A preemergence; details: Bassia scoparia, pre-emergence, 240 h, 0 to 100 scale where 0 is no effect and 100 is complete control, read-out: Kochia plant response rating
In short: (§1)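 Visual injury scores from 0, no effect, to 100, complete control, were assigned versus untreated controls roughly 10 d after treatment in the greenhouse. Test chemicals, formulated with surfactant in a non-phytotoxic solvent, were applied to planted seeds as a preemergence soil spray or postemergence to one- to two-leaf plants 2 to 10 cm tall, in loam–sand soil.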

[2] = tested on: barnyardgrass (Echinochloa crus-galli); assay: Test A preemergence; details: Echinochloa crus-galli, pre-emergence, 240 h, 0 to 100 scale where 0 is no effect and 100 is complete control, read-out: Barnyardgrass plant response rating
In short: as §1

[3] = tested on: giant foxtail (Setaria faberii); assay: Test A preemergence; details: Setaria faberi, pre-emergence, 240 h, 0 to 100 scale where 0 is no effect and 100 is complete control, read-out: Foxtail, Giant plant response rating
In short: as §1

[4] = tested on: pigweed (Amaranthus retroflexus); assay: Test A preemergence; details: Amaranthus retroflexus, pre-emergence, 240 h, 0 to 100 scale where 0 is no effect and 100 is complete control, read-out: Pigweed plant response rating
[5] = tested on: ragweed (common ragweed, Ambrosia elatior); assay: Test A preemergence; details: Ambrosia artemisiifolia, pre-emergence, 240 h, 0 to 100 scale where 0 is no effect and 100 is complete control, read-out: Ragweed plant response rating
In short: as §1

[6] = tested on: ryegrass, Italian (Italian ryegrass, Lolium multiflorum); assay: Test A preemergence; details: Lolium multiflorum, pre-emergence, 240 h, 0 to 100 scale where 0 is no effect and 100 is complete control, read-out: Ryegrass, Italian plant response rating
In short: as §1

[7] = tested on: Galium (catchweed bedstraw, Galium aparine); assay: Test A postemergence; details: Galium, post-emergence, 240 h
In short: as §1

Kochia (Kochia scoparia) [8] = assay: Test A postemergence; details: Bassia scoparia, post-emergence, 240 h
In short: as §1

[9] = tested on: barnyardgrass (Echinochloa crus-galli); assay: Test A postemergence; details: Echinochloa crus-galli, post-emergence, 240 h
In short: as §1

[10] = tested on: blackgrass (Alopecurus myosuroides); assay: Test A postemergence; details: Alopecurus myosuroides, post-emergence, 240 h
In short: as §1

corn (Zea mays) = assay: Test A postemergence; details: Zea mays, post-emergence, 240 h
In short: as §1

[11] = tested on: giant foxtail (Setaria faberii); assay: Test A postemergence; details: Setaria faberi, post-emergence, 240 h
In short: as §1

[12] = tested on: pigweed (Amaranthus retroflexus); assay: Test A postemergence; details: Amaranthus retroflexus, post-emergence, 240 h
In short: as §1

[13] = tested on: ragweed (common ragweed, Ambrosia elatior); assay: Test A postemergence; details: Ambrosia artemisiifolia, post-emergence, 240 h
In short: as §1

[14] = tested on: ryegrass, Italian (Italian ryegrass, Lolium multiflorum); assay: Test A postemergence; details: Lolium multiflorum, post-emergence, 240 h
In short: as §1

[15] = tested on: wheat (Triticum aestivum); assay: Test A postemergence; details: Triticum aestivum, post-emergence, 240 h
In short: as §1

[16] = tested on: barnyardgrass (Echinochloa crus-galli); assay: Test B flooded paddy test; details: Echinochloa crus-galli, 250 g ai/ha, Flood; 0 to 100 scale where 0 is no effect and 100 is complete control; read-out: Barnyardgrass plant response rating
In short: (§2)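 Response scored visually against untreated controls, 0 = no effect and 100 = complete control, 13–15 d after treatment in the greenhouse. Compounds added to paddy water held 3 cm above soil surface. Treatment given at 2-leaf stage.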

[17] = tested on: ducksalad (Heteranthera limosa); assay: Test B flooded paddy test; details: Heteranthera limosa, 250 g ai/ha, Flood; 0 to 100 scale where 0 is no effect and 100 is complete control; read-out: Ducksalad plant response rating
In short: as §2

rice (Oryra sativa) = assay: Test B flooded paddy test; details: Oryza sativa, 250 g ai/ha, Flood; 0 to 100 scale where 0 is no effect and 100 is complete control; read-out: Rice plant response rating
In short: as §2

[18] = tested on: sedge, umbrella (small-flower umbrella sedge, Cyperus difformis); assay: Test B flooded paddy test; details: Cyperus difformis, 250 g ai/ha, Flood; 0 to 100 scale where 0 is no effect and 100 is complete control; read-out: Sedge, Umbrella plant response rating
In short: as §2

[19] = 125 g ai/ha, preemergence, approx. 10 d

CN1C[C@H](c2ccc(C(F)(F)F)nc2)[C@@](C)(C(=O)Nc2cccc(F)c2F)C1=O [Compound 1109]
pest or weed control at 31 g/ha (Kochia (Kochia scoparia) [1]; 31 g ai/ha, Preemergence): 0%
pest or weed control at 125 g/ha (Kochia (Kochia scoparia) [1]; [19]): 70%
pest or weed control at 31 g/ha ([2]; 31 g ai/ha, Preemergence): 100%
pest or weed control at 125 g/ha [2, 19]: 100%
pest or weed control at 31 g/ha ([3]; 31 g ai/ha, Preemergence): 100%
pest or weed control at 125 g/ha [3, 19]: 100%
pest or weed control at 31 g/ha ([4]; 31 g ai/ha, Preemergence): 70%
pest or weed control at 125 g/ha [4, 19]: 90%
pest or weed control at 31 g/ha ([5]; 31 g ai/ha, Preemergence): 0%
pest or weed control at 125 g/ha [5, 19]: 50%
pest or weed control at 31 g/ha ([6]; 31 g ai/ha, Preemergence): 60%
pest or weed control at 125 g/ha [6, 19]: 80%
pest or weed control at 125 g/ha ([7]; 125 g ai/ha, postemergence, visual injury on 0 to 100 scale (0 no effect, 100 complete control), approx. 10 d, read-out: Galium plant response rating): 50%
pest or weed control at 31 g/ha ([7]; Postemergence, 31 g ai/ha, visual injury after approx. 10 d, 0 to 100 scale, 0 no effect, 100 complete control, read-out: Plant response rating, Galium): 30%
pest or weed control at 125 g/ha (Kochia (Kochia scoparia) [8]; 125 g ai/ha, postemergence, visual injury on 0 to 100 scale (0 no effect, 100 complete control), approx. 10 d, read-out: Kochia plant response rating): 70%
pest or weed control at 31 g/ha (Kochia (Kochia scoparia) [8]; Postemergence, 31 g ai/ha, visual injury after approx. 10 d, 0 to 100 scale, 0 no effect, 100 complete control, read-out: Plant response rating, Kochia): 20%
pest or weed control at 125 g/ha ([9]; 125 g ai/ha, postemergence, visual injury on 0 to 100 scale (0 no effect, 100 complete control), approx. 10 d, read-out: Barnyardgrass plant response rating): 100%
pest or weed control at 31 g/ha ([9]; Postemergence, 31 g ai/ha, visual injury after approx. 10 d, 0 to 100 scale, 0 no effect, 100 complete control, read-out: Plant response rating, Barnyardgrass): 90%
pest or weed control at 125 g/ha ([10]; 125 g ai/ha, postemergence, visual injury on 0 to 100 scale (0 no effect, 100 complete control), approx. 10 d, read-out: Blackgrass plant response rating): 40%
pest or weed control at 31 g/ha ([10]; Postemergence, 31 g ai/ha, visual injury after approx. 10 d, 0 to 100 scale, 0 no effect, 100 complete control, read-out: Plant response rating, Blackgrass): 20%
plant injury at 125 g/ha (corn (Zea mays); 125 g ai/ha, postemergence, visual injury on 0 to 100 scale (0 no effect, 100 complete control), approx. 10 d, read-out: Corn plant response rating): 80%
Corn plant response rating (crop injury, 0 = no effect, 100 = complete kill) at 31 g/ha (corn (Zea mays); Postemergence, 31 g ai/ha, visual injury after approx. 10 d, 0 to 100 scale, 0 no effect, 100 complete control): 40%
pest or weed control at 125 g/ha ([11]; 125 g ai/ha, postemergence, visual injury on 0 to 100 scale (0 no effect, 100 complete control), approx. 10 d, read-out: Foxtail, Giant plant response rating): 90%
pest or weed control at 31 g/ha ([11]; Postemergence, 31 g ai/ha, visual injury after approx. 10 d, 0 to 100 scale, 0 no effect, 100 complete control, read-out: Plant response rating, Foxtail, Giant): 70%
pest or weed control at 125 g/ha ([12]; 125 g ai/ha, postemergence, visual injury on 0 to 100 scale (0 no effect, 100 complete control), approx. 10 d, read-out: Pigweed plant response rating): 60%
pest or weed control at 31 g/ha ([12]; Postemergence, 31 g ai/ha, visual injury after approx. 10 d, 0 to 100 scale, 0 no effect, 100 complete control, read-out: Plant response rating, Pigweed): 20%
pest or weed control at 125 g/ha ([13]; 125 g ai/ha, postemergence, visual injury on 0 to 100 scale (0 no effect, 100 complete control), approx. 10 d, read-out: Ragweed plant response rating): 50%
pest or weed control at 31 g/ha ([13]; Postemergence, 31 g ai/ha, visual injury after approx. 10 d, 0 to 100 scale, 0 no effect, 100 complete control, read-out: Plant response rating, Ragweed): 0%
pest or weed control at 125 g/ha ([14]; 125 g ai/ha, postemergence, visual injury on 0 to 100 scale (0 no effect, 100 complete control), approx. 10 d, read-out: Ryegrass, Italian plant response rating): 50%
pest or weed control at 31 g/ha ([14]; Postemergence, 31 g ai/ha, visual injury after approx. 10 d, 0 to 100 scale, 0 no effect, 100 complete control, read-out: Plant response rating, Ryegrass, Italian): 0%
plant injury at 125 g/ha ([15]; 125 g ai/ha, postemergence, visual injury on 0 to 100 scale (0 no effect, 100 complete control), approx. 10 d, read-out: Wheat plant response rating): 60%
plant injury at 31 g/ha ([15]; Postemergence, 31 g ai/ha, visual injury after approx. 10 d, 0 to 100 scale, 0 no effect, 100 complete control, read-out: Plant response rating, Wheat): 30%
pest or weed control at 250 g/ha [16]: 85%
pest or weed control at 250 g/ha [17]: 90%
pest or weed control at 250 g/ha (rice (Oryra sativa)): 50%
pest or weed control at 250 g/ha [18]: 0%
